Laboratory results published in the supplement of paper PMC11997997.

Experiments:
[1] = system: Mycobacterium tuberculosis CDC1551 (intracellular, in murine BMDM); experiment: area under intracellular growth-inhibition dose-response curve (AUC (% inhibition x dose, relative)); higher = more potent; conditions: duration: 6 days; dose range: 0.13-80 uM, 8 points
How it was run: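 Macrophages derived from primary murine bone marrow were infected for 1 h at multiplicity of infection 1 with luciferase-expressing M. tuberculosis CDC1551, then treated for 6 days at final concentrations of 80–0.13 μM. Bright-Glo luciferin signal, normalised to a reference drug control and the lowest-concentration wells, gave the growth readout. Area under the growth-inhibition dose–response curve was then calculated in GraphPad Prism.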

[2] = system: murine bone marrow-derived macrophages; experiment: area under cytotoxicity dose-response curve (AUC (% cytotoxicity x dose, relative)); higher = more cytotoxic; conditions: duration: 6 days; dose range: 0.13-80 uM, 8 points
How it was run: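 Primary murine bone marrow-derived macrophages in opaque 384-well plates were exposed to an 8-point, 2.5-fold dilution series (final 80–0.13 μM) for 6 days at 37 °C in 5% CO2. Viability was read with Promega's CellTiter-Glo luminescence assay, and percent cytotoxicity was normalised to vehicle and positive control wells. Cytotoxicity is reported as the area under the dose–response curve, calculated in GraphPad Prism version 10.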

SMILES	area under intracellular growth-inhibition dose-response curve [1]	area under cytotoxicity dose-response curve [2]
CC(C)CC(=O)NC(=S)Nc1ccc(NC(=O)c2cccs2)cc1	271	33.2
COc1ccc(C=CC(C)=NNC(=O)c2ccncc2)cc1	254	< 0
CCOC(=O)c1c(-c2ccccc2)oc2ccc(O)c(CN3CCCC3)c12	278	< 0
CCCCN1CNC(=S)N(c2ccc(C(=O)OCC)cc2)C1	270	< 0
C/C(CC(=O)Nc1ccc(Cl)cc1Cl)=N\NC(=O)c1ccncc1	270	46.2
Cc1cccc(C)c1-n1c(C)cc(/C=N/NC(=O)c2ccncc2)c1C	252	32.2
O=C(NC1CCCCCCC1)c1ccc(Br)cc1	268	< 0
CC1CCC(C(C)C)C(OC(=O)Cn2c(-c3ccccc3)[n+](C)c3ccccc32)C1.[Cl-] (stereo not drawn)	124	12.5
COc1ccc(Cn2c(SCc3ccccc3C)nc3cc(OC)c(OC)cc3c2=N)cc1	172	2.96
COc1ccc2nc(N3CCN(C(=O)c4ccc([N+](=O)[O-])o4)CC3)sc2c1	33.1	87
CCOC(=O)c1cn(Cc2cccc(C)c2)nn1	98.1	56.6
COc1cc(/C=N/NC(=O)c2ccncc2)ccc1OC(C)=O	273	37.6
CC(=O)Nc1ccccc1NC(=O)C/C(C)=N/NC(=O)c1ccncc1	168	38.1
COc1ccc(CN(C)C(=O)COC(=O)c2cc([N+](=O)[O-])ccc2N2CCCC2)c(OC)c1OC	31	66.2
